Values of other authors as cited in patent US6051572A, “Azetidine, pyrrolidine and piperidine derivatives” (Merck Sharp & Dohme Ltd., priority 1995, dated 2000).

Conditions: therapeutic doses

CNS(=O)(=O)Cc1ccc2[nH]cc(CCN(C)C)c2c1 [sumatriptan]
adverse events in humans: certain adverse cardiovascular events
